Measured values from US9249129B2, “Morpholino substituted urea derivatives as mTOR inhibitors” (CELLZOME LIMITED, priority 2010, dated 2016).

How the values were obtained:
Test in all cases: kinobeads assay with mass spectrometry detection of kinases (kinase selectivity profile)
Assay type in all cases: binding
kinases (kinome) [1] = target: T1, kinases (kinome) (Homo sapiens, UniProt Q15059); conditions: BRD3 (Atypical), IPI00014266
T1 construct: determined in kinobeads assays with mass spectrometry detection of kinases as described previously; endogenous in cells; host or cells: cell lysate
Description: (§1) The protein kinase complement of the human genome (the kinome) was described previously (Manning et al., 2002. Science 298(5600):1912-1934). Sequence accession numbers are defined by the International Protein Index (IPI) (Kersey et al., 2004. Proteomics 4(7):1985-1988).

kinases (kinome) [2] = target: T2, kinases (kinome) (Homo sapiens, UniProt P45984); conditions: JNK2 (CMGC), IPI00303550
T2 construct: determined in kinobeads assays with mass spectrometry detection of kinases as described previously; endogenous in cells; host or cells: cell lysate
Description: as §1

kinases (kinome) [3] = target: T3, kinases (kinome) (Homo sapiens, UniProt Q13233); conditions: MAP3K1 (STE), IPI00855985
T3 construct: determined in kinobeads assays with mass spectrometry detection of kinases as described previously; endogenous in cells; host or cells: cell lysate
Description: as §1

kinases (kinome) [4] = target: T4, kinases (kinome) (Homo sapiens, UniProt P15056); conditions: BRAF (TKL), IPI00303797
T4 construct: determined in kinobeads assays with mass spectrometry detection of kinases as described previously; endogenous in cells; host or cells: cell lysate
Description: as §1

kinases (kinome) [5] = target: T5, kinases (kinome) (Homo sapiens, UniProt Q16512); conditions: PKN1 (AGC), IPI00412672
T5 construct: determined in kinobeads assays with mass spectrometry detection of kinases as described previously; endogenous in cells; host or cells: cell lysate
Description: as §1

kinases (kinome) [6] = target: T6, kinases (kinome) (Homo sapiens, UniProt Q9BVS4); conditions: RIOK2 (Atypical), IPI00306406
T6 construct: determined in kinobeads assays with mass spectrometry detection of kinases as described previously; endogenous in cells; host or cells: cell lysate
Description: as §1

kinases (kinome) [7] = target: T7, kinases (kinome) (Homo sapiens, UniProt P09769); conditions: FGR (TK), IPI00016871
T7 construct: determined in kinobeads assays with mass spectrometry detection of kinases as described previously; endogenous in cells; host or cells: cell lysate
Description: as §1

kinases (kinome) [8] = target: T8, kinases (kinome) (Homo sapiens, UniProt P42680); conditions: TEC (TK), IPI00000878
T8 construct: determined in kinobeads assays with mass spectrometry detection of kinases as described previously; endogenous in cells; host or cells: cell lysate
T8 sequence (P42680 1-631): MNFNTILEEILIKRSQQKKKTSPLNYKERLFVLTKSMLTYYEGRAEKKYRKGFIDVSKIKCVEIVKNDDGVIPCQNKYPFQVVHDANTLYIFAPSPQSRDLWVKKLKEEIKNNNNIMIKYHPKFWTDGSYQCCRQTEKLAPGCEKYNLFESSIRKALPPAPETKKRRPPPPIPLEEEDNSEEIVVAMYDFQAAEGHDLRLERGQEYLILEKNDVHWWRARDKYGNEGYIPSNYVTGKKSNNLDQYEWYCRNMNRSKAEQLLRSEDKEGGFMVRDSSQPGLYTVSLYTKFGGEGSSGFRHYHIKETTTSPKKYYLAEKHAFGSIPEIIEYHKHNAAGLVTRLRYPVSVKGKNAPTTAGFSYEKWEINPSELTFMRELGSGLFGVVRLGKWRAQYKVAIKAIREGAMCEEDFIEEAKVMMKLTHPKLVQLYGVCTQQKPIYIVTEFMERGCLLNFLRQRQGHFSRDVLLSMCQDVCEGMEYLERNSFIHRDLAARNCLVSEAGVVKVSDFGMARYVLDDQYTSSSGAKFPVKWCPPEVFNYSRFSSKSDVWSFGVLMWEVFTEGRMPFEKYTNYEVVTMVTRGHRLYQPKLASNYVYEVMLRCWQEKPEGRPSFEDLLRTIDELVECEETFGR
Description: as §1

kinases (kinome) [9] = target: T9, kinases (kinome) (Homo sapiens, UniProt Q9Y2U5); conditions: MAP3K2 (STE), IPI00513803
T9 construct: determined in kinobeads assays with mass spectrometry detection of kinases as described previously; endogenous in cells; host or cells: cell lysate
T9 sequence (Q9Y2U5 1-619): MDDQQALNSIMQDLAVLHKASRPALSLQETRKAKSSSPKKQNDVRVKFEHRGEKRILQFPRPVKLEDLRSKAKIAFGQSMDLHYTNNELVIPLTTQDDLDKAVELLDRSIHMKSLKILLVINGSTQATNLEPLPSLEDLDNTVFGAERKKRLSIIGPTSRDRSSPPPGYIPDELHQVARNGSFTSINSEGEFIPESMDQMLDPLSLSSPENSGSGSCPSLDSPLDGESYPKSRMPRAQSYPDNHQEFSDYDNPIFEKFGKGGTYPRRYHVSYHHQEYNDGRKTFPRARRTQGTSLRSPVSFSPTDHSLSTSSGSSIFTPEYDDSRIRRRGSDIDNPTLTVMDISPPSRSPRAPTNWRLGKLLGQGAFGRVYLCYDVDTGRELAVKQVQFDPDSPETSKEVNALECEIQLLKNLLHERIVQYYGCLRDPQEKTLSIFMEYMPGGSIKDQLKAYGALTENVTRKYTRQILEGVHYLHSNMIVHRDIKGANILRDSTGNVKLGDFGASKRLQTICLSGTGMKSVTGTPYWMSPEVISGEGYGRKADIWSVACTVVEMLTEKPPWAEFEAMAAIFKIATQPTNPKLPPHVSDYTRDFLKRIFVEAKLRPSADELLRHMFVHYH
Description: as §1

kinases (kinome) [10] = target: T10, kinases (kinome) (Homo sapiens, UniProt Q9H0K1); conditions: QIK (CAMK), IPI00465291
T10 construct: determined in kinobeads assays with mass spectrometry detection of kinases as described previously; endogenous in cells; host or cells: cell lysate
Description: as §1

kinases (kinome) [11] = target: T11, kinases (kinome) (Homo sapiens, UniProt Q96RR4); conditions: CaMKK2 (Other), IPI00290239
T11 construct: determined in kinobeads assays with mass spectrometry detection of kinases as described previously; endogenous in cells; host or cells: cell lysate
Description: as §1

kinases (kinome) [12] = target: T12, kinases (kinome) (Homo sapiens, UniProt P07947); conditions: YES (TK), IPI00013981
T12 construct: determined in kinobeads assays with mass spectrometry detection of kinases as described previously; endogenous in cells; host or cells: cell lysate
Description: as §1

kinases (kinome) [13] = target: T13, kinases (kinome) (Homo sapiens, UniProt P30291); conditions: Wee1 (Other), IPI00025830
T13 construct: determined in kinobeads assays with mass spectrometry detection of kinases as described previously; endogenous in cells; host or cells: cell lysate
Description: as §1

kinases (kinome) [14] = target: T14, kinases (kinome) (Homo sapiens, UniProt P24941); conditions: CDK2 (CMGC), IPI00031681
T14 construct: determined in kinobeads assays with mass spectrometry detection of kinases as described previously; endogenous in cells; host or cells: cell lysate
Description: as §1

kinases (kinome) [15] = target: T15, kinases (kinome) (Homo sapiens, UniProt Q92918); conditions: HPK1 (STE), IPI00020258
T15 construct: determined in kinobeads assays with mass spectrometry detection of kinases as described previously; endogenous in cells; host or cells: cell lysate
Description: as §1

T13 sequence (P30291 whole entry): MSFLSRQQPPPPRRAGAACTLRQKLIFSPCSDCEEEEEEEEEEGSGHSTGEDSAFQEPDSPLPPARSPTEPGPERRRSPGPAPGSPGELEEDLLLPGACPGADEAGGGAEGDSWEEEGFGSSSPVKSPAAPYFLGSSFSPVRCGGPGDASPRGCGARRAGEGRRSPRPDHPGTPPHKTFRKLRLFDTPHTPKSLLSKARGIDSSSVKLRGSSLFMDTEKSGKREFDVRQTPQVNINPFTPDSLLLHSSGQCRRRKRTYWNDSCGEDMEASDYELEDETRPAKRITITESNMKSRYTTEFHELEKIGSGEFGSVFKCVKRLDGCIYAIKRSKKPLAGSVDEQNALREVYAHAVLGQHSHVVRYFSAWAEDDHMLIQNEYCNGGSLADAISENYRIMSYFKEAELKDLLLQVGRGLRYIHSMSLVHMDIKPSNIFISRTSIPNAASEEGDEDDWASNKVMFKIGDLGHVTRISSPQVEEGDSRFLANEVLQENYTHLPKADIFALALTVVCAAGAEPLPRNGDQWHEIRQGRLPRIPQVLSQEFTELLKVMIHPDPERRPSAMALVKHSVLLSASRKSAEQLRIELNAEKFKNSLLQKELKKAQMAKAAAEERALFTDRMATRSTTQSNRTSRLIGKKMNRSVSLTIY
T6 sequence (Q9BVS4 whole entry): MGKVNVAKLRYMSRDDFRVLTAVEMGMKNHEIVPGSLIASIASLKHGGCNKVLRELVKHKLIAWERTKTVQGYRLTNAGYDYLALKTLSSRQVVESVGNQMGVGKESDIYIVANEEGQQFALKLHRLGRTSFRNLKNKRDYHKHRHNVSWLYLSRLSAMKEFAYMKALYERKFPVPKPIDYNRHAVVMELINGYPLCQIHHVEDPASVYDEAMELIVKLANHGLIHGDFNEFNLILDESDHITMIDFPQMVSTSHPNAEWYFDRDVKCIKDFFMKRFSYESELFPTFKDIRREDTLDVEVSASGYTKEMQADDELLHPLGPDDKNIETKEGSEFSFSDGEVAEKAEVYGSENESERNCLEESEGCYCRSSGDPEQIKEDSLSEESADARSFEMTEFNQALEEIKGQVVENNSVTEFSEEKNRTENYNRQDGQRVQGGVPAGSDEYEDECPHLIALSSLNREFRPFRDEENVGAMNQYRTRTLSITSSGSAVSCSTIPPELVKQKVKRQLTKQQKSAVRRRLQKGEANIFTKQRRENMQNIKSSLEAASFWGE
T5 sequence (Q16512 whole entry): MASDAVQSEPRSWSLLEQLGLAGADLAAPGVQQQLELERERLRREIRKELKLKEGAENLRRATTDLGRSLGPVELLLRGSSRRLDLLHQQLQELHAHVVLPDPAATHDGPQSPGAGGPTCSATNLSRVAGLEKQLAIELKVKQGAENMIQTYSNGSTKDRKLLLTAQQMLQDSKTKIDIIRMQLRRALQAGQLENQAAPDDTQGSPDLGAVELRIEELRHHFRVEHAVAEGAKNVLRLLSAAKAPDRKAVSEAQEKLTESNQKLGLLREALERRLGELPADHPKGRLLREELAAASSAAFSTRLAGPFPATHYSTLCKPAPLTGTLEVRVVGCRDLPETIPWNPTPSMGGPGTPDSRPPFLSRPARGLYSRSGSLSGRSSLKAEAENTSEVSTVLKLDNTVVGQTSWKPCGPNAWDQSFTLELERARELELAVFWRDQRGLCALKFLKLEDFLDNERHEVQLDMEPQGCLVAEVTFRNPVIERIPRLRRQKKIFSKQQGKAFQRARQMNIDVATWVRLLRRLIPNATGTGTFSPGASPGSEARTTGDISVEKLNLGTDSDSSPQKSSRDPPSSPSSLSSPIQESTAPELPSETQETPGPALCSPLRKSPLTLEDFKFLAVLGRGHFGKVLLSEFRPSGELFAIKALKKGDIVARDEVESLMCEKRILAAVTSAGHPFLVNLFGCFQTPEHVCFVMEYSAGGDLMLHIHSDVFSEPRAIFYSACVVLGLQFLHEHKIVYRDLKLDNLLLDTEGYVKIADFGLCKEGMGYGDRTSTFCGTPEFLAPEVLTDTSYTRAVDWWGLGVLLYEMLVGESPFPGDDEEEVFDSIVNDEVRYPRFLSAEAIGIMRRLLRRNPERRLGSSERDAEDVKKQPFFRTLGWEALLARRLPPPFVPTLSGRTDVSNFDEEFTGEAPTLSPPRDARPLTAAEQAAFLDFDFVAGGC
T1 sequence (Q15059 whole entry): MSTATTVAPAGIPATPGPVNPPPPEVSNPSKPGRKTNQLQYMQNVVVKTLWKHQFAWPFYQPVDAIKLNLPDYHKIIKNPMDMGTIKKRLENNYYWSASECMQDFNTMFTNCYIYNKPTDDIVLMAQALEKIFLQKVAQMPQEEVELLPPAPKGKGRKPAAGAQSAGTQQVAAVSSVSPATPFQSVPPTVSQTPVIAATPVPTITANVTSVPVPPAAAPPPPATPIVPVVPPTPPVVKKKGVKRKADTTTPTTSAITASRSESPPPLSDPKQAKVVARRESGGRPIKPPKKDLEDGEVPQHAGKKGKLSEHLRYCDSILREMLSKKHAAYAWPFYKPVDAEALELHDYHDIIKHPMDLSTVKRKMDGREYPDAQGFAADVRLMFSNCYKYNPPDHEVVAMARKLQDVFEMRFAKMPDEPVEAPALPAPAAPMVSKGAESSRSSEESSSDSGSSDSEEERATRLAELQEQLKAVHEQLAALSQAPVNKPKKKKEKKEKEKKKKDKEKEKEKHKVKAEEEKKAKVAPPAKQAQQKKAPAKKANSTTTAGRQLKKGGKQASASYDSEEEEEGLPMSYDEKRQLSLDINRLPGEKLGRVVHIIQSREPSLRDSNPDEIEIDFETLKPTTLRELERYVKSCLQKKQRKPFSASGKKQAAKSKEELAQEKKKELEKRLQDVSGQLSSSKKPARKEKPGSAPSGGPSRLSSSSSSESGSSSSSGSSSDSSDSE
T10 sequence (Q9H0K1 whole entry): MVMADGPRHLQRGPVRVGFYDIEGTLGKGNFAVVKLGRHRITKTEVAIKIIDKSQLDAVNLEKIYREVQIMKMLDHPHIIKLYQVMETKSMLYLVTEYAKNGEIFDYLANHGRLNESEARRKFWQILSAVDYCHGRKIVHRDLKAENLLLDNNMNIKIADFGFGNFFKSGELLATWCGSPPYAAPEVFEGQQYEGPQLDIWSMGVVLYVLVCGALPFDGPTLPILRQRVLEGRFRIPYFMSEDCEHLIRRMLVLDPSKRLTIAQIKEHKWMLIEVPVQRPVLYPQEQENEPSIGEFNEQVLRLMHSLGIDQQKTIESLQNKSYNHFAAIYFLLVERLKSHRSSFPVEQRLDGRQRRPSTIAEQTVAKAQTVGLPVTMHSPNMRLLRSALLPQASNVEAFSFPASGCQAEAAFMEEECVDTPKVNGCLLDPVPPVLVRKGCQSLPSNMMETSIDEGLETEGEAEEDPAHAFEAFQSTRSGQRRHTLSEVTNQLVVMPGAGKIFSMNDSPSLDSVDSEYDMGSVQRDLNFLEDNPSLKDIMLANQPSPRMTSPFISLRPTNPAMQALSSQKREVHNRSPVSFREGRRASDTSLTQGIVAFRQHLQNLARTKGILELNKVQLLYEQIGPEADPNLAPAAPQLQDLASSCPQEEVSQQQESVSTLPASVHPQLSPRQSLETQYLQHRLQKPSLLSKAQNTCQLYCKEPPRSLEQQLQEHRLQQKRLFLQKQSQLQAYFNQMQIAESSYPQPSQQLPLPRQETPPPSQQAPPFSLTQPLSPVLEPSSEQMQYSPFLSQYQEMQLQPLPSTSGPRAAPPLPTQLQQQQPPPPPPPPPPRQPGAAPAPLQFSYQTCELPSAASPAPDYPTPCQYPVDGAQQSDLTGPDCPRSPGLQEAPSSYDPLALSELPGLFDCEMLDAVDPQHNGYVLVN
T4 sequence (P15056 whole entry): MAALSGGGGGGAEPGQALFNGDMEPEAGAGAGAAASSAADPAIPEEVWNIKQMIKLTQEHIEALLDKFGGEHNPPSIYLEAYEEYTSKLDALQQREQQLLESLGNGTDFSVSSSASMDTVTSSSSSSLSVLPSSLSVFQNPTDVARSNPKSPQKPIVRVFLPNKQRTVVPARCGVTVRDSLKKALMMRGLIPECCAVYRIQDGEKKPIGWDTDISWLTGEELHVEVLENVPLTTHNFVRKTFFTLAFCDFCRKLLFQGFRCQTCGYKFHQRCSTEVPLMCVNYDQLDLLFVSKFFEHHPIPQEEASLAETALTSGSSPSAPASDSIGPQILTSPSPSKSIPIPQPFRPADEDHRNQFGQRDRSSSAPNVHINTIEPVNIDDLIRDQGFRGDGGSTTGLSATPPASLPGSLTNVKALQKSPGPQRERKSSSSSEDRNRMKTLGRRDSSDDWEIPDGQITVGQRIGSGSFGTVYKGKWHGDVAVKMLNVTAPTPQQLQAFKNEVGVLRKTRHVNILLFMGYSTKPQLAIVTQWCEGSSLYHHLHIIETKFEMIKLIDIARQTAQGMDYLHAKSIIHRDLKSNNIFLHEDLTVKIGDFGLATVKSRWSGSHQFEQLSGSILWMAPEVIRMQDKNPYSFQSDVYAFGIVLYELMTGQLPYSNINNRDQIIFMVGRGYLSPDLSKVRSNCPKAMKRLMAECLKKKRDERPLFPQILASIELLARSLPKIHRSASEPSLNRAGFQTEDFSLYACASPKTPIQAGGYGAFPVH
T2 sequence (P45984 whole entry): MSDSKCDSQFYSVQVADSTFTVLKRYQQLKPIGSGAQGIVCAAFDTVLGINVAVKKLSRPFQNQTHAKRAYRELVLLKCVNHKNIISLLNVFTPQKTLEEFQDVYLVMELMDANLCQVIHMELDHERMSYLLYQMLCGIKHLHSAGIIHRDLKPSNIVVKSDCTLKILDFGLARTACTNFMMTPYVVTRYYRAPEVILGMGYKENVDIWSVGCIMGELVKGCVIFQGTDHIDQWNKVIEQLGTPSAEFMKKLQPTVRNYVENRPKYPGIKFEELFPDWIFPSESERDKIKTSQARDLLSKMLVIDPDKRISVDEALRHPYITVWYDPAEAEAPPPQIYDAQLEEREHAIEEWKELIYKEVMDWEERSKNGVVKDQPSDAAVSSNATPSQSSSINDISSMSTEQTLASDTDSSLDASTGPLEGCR

IC50 (kinases (kinome) [1]) [µM]	IC50 (kinases (kinome) [2]) [µM]	IC50 (kinases (kinome) [3]) [µM]	IC50 (kinases (kinome) [4]) [µM]	IC50 (kinases (kinome) [5]) [µM]	IC50 (kinases (kinome) [6]) [µM]	IC50 (kinases (kinome) [7]) [µM]	IC50 (kinases (kinome) [8]) [µM]	IC50 (kinases (kinome) [9]) [µM]	IC50 (kinases (kinome) [10]) [µM]	IC50 (kinases (kinome) [11]) [µM]	IC50 (kinases (kinome) [12]) [µM]	IC50 (kinases (kinome) [13]) [µM]	IC50 (kinases (kinome) [14]) [µM]	IC50 (kinases (kinome) [15]) [µM]	Compound
> 10	> 10	> 10	> 10	> 10	> 10	> 10	> 10	> 10	> 10	> 10	> 10	> 10	> 10	> 10	C[C@H]1COCCN1c1nc(-c2ccc(NC(=O)NC3CC3)cc2)cc(-c2cccnc2S(C)(=O)=O)n1 [Example 46, (S)-1-cyclopropyl-3-(4-(2-(3-methylmorpholino)-6-(2-(methylsulfonyl)pyridin-3-yl)pyrimidin-4-yl)phenyl)urea]
> 10	> 10	> 10	> 10	> 10	> 10	> 10	> 10	> 10	> 10	> 10	> 10	> 10	> 10	> 10	C[C@H]1COCCN1c1nc(-c2ccc(NC(=O)NC3CC3)cc2)cc(-c2ccccc2S(C)(=O)=O)n1 [Example 4, (S)-1-cyclopropyl-3-(4-(2-(3-methylmorpholino)-6-(2-(methylsulfonyl)phenyl)pyrimidin-4-yl)phenyl)urea]
> 10	> 10	> 10	> 10	> 10	> 10	> 10	> 10	> 10	> 10	> 10	> 10	> 10	> 10	> 10	C[C@H]1COCCN1c1nc(-c2ccc(NC(=O)NC3CC3)cc2)cc(-c2cc(F)ccc2S(C)(=O)=O)n1 [Example 40, (S)-1-cyclopropyl-3-(4-(6-(5-fluoro-2-(methylsulfonyl)phenyl)-2-(3-methylmorpholino)pyrimidin-4-yl)phenyl)urea]
> 10	> 10	> 10	> 10	> 10	> 10	> 10	> 10	> 10	> 10	> 10	> 10	> 10	> 10	> 10	C[C@H]1COCCN1c1nc(-c2ccc(NC(=O)N[C@H]3CCC[C@@H]3O)cc2)cc(-c2cc(F)ccc2S(C)(=O)=O)n1 [Example 76, 1-(4-(6-(5-fluoro-2-(methylsulfonyl)phenyl)-2-((S)-3-methylmorpholino)pyrimidin-4-yl)phenyl)-3-((1S,2S)-2-hydroxycyclopentyl)urea]
> 10	> 10	> 10	> 10	> 10	> 10	> 10	> 10	> 10	> 10	> 10	> 10	> 10	> 10	> 10	C[C@H]1COCCN1c1cc(-c2ccccn2)nc(-c2ccc(NC(=O)NCCO)cc2)n1 [Example 43, (S)-1-(2-hydroxyethyl)-3-(4-(4-(3-methylmorpholino)-6-(pyridin-2-yl)pyrimidin-2-yl)phenyl)urea]
> 10	> 10	> 10	> 10	> 10	> 10	> 10	> 10	> 10	> 10	> 10	> 10	> 10	> 10	> 10	C[C@H]1COCCN1c1cc(-c2ccccc2S(C)(=O)=O)nc(-c2ccc(NC(=O)NC3CC3)cc2)n1 [Example 6, (S)-1-cyclopropyl-3-(4-(4-(3-methylmorpholino)-6-(2-(methylsulfonyl)phenyl)pyrimidin-2-yl)phenyl)urea]
> 10	> 10	> 10	> 10	> 10	> 10	> 10	> 10	> 10	> 10	> 10	> 10	> 10	> 10	> 10	CCNC(=O)Nc1ccc(-c2cc(-c3ccccc3C#N)nc(N3CCOC[C@@H]3C)n2)cc1 [Example 8, (S)-1-(4-(6-(2-cyanophenyl)-2-(3-methylmorpholino)pyrimidin-4-yl)phenyl)-3-ethylurea]
